A word on the inhibition: it is the percentage by which the read-out fell short of the control. Broadly, the melting point is the temperature of the solid-liquid transition.

Here are results for 37 molecules from patent US6444668B1 (Wyeth, priority 1999, dated 2002).

The subject of data set [1] is rat uterine decidualization. As to the kind of experiment: Rat decidualization assay. It is filed as in vivo. Particulars: for Decidualization IC50: half-maximal decrease in EC50 progesterone induced decidual response. As to the method:
1. Rat Decidualization Assay
b. Animals (RACUC Protocol #5002)
The animals are treated once daily for seven days.
Uteri are removed and trimmed of fat.
Body weight: Mean total animal body weight (default-kg)
Decidual response: [(D-C)/C]x100%

Values joined by “and” are separate entries in the source; they are usually repeats but may differ in a detail not shown here. Equal entries are not always repeated.

Consider `CC1(C)OC(=O)Nc2ccc(-c3csc(C#N)c3)cc21` [Compound 17, 4-(4.4-Dimethyl-2-oxo-1.4dihydro-2H-benzo[d][1,3]oxazin-6-yl)thiophene2-carbonitrile], for which the “Decidualization IC50” value in data set [1] stood at 2.3 ± 0.46 mg/kg. In the case of `CC1(C)OC(=O)Nc2ccc(-c3ccc(F)c(C#N)c3)cc21` [Compound 1, 5-(4,4Dimethyl-2-oxo-1,4-dihydro-2H-benzo[d][1,3]oxazin-6-yl)-2-fluoro-benzonitrile], the inhibition at 1 mg/kg in data set [1] (dose 1 mg/kg, read-out: Decidualization, percentage inhibition at the dose specified) came to 80%. Regarding `Cc1cc(C#N)sc1-c1ccc2c(c1)C(C)(C)OC(=O)N2` [Compound 18, 5-(4. 4-Dimethyl-2-oxo-1. 4-dihydro-2H-benzo[d][1,3]oxazin-6-yl)-4-methyl-thiophene-2-carbonitrile], the “Decidualization IC50” value in data set [1] turned out to be 1.5 mg/kg. Regarding `C#C[C@]1(O)CC[C@H]2[C@@H]3CCC4=CC(=O)CC[C@@H]4[C@H]3C(=C)C[C@@]21CC` [3-Ketodesogestrel, reference compound], the “Estimated average EC50 (decidual response)” value in data set [1] (s.c., average of dose-response curves) is 0.10 mg/kg. Also, in data set [1] (s.c., individual studies), the “Estimated EC50 for uterine wet weight (decidual response)” value was 0.10 mg/kg and 0.06 mg/kg and 0.11 mg/kg.

As to `CC1(C)OC(=O)Nc2ccc(-c3cc(F)cc(Cl)c3)cc21` [Compound 14, 6-(3-Chloro-5fluoro-phenyl)-4,4dimethyl-1,4-dihydro-benzo[d][1,3]oxazin-2-one], the inhibition at 3 mg/kg in data set [1] (dose 3 mg/kg, read-out: Decidualization, percentage inhibition at the dose specified) came out at 50%. `CC(C)(C)OC(=O)n1c(-c2ccc3c(c2)C(C)(C)OC(=O)N3)ccc1[N+](=O)[O-]` [Example 95, 2-(4,4Dimethyl-2-oxo-1,4-dihydro-2H-benzo[d][1,3]oxazin-6-yl)-5-nitro-pyrrole-1-carboxylic acid tert-butyl ester] returned a melting point of 125 °C. Molecule `CC1(C)OC(=O)Nc2ccc(-c3cc(CC#N)ccc3F)cc21` [Example 134, 3-(4,4-Dimethyl-2-oxo-1,4-dihydro2H-benzo[d][1,3]-oxazin-6-yl)-4-fluoro-phenylacetonitrile] displayed a melting point of 184 to 187 °C.

In turn, `N#Cc1cc(-c2ccc3c(c2)C(C2CC2)(C2CC2)OC(=O)N3)cs1` [Example 53, 4-(4,4-Dicyclopropyl-2-oxo-1,4-dihydro-2H-benzo[d][1,3]oxazin-6yl)-thiophene-2-carbonitrile] displayed a melting point of 244 to 245 °C. As to `CC1(C)OC(=O)Nc2c(F)cc(-c3cc(F)cc(C#N)c3)cc21` [Example 89, 3-Fluoro-5-(8-fluoro-4,4dimethyl-2-oxo-1,4-dihydro-2H-benzo[d][1,3]oxazin-6-yl)-benzonitrile], the melting point was 256 to 257 °C. In turn, `CC1(C)OC(=O)Nc2ccc(-c3cccc(C#N)c3F)cc21` [Example 120, 3-(4,4-Dimethyl-2-oxo-1,4-dihydro-2H-benzo[d][1,3]oxazin-6-yl)-2fluoro-benzonitrile] showed a melting point of 192 to 198 °C. `CC1OC(=O)Nc2ccc(-c3cccc(F)c3)cc21` (centres unmarked) [Example 127, 6-(3-Fluorophenyl)-4-methyl-1,4-dihydro-2H-3,1-benzoxazin-2-one] had a melting point of 160 to 161 °C. Molecule `CC#CC1(C2CC2)OC(=O)Nc2ccc(-c3cccc(Cl)c3)cc21` (centres unmarked) [Example 42, 6-(3-Chloro-phenyl)-4-cyclopropyl-4-propyn-1-yl-1,4-dihydro-benzo [d][1,3]oxazin-2-one] had a melting point of 178 to 179 °C. Still for that read-out and setting: the value for `CC1(C)OC(=O)Nc2c(O)cc(-c3cc(F)cc(C#N)c3)cc21` [Example 129, 3-(4,4-Dimethyl-8-hydroxy-2-oxo-1,4-dihydro-2H-3,1-benzoxazin-6yl)-5-fluorobenzonitrile] was 197 to 198 °C. The same measure, in the same setting: the same measure for `CC1(C)OC(=O)Nc2c(Br)cc(-c3ccc(F)c(C#N)c3)cc21` [Example 125, 5-(8-Bromo-4,4-dimethyl-2-oxo-1,4-dihydro-2H-3,1-benzoxazin-6-yl)-2-fluorobenzonitrile]: 235 to 236 °C.

As to `CCOC(OCC)N1C(=O)OC(C)(C)c2cc(-c3cc(F)cc(C#N)c3)ccc21` [Example 66, 3(1-Diethoxymethyl-4,4-dimethyl-2-oxo-1,4-dihydro-2H-benzo[d][1,3]oxazin-6-yl)-5-fluoro-benzonitrile], the melting point was in the range of 123 to 124 °C. `O=C1Nc2ccc(-c3cccc(Cl)c3)cc2C(c2ccccc2)O1` (centres unmarked) [Example 11, 6-(3-Chloro-phenyl)-4-phenyl-1,4-dihydro-benzo [d][1,3]oxazin-2-one] showed a melting point of 177 to 178 °C.

Turning to `CC1(C)OC(=O)Nc2ccc(-c3cc(F)cc(C#N)c3)cc21` [Compound 19, 3-(4,4-Dimethyl-2-oxo-1,4-dihydro-2H-benzo[d][1,3]oxazin-6-yl)-5-fluorobenzonitrile], the “Decidualization IC50” value in data set [1] amounted to 0.35 mg/kg. For the molecule `CC1(C)OC(=O)Nc2ccc(-c3cccc(C#C[Si](C)(C)C)c3)cc21`, the melting point was 240 to 242 °C. `COCN1C(=O)OC(C)(C)c2cc(-c3cc(F)cc(C#N)c3)ccc21` [Example 67, 3-Fluoro-5(1-methoxymethyl-4,4-dimethyl-2-oxo-1,4-dihydro-2H-benzo[d][1,3]oxazin-6-yl)-benzonitrile] showed a melting point of 169 to 171 °C. As to `CC1(C2CC2)OC(=O)Nc2ccc(-c3cccc(Cl)c3)cc21` (centres unmarked) [Example 41, 6(3-Chloro-phenyl)-4-cyclopropyl-4-methyl-1,4-dihydro-benzo [d][1,3]oxazin-2-one], the melting point lay in the range of 158 to 159 °C. The molecule `COc1cccc(-c2ccc3c(c2)C(C)(C)OC(=O)N3)c1` [Example 6, 6-(3-Methoxy-phenyl)-4,4dimethyl-1,4-dihydro-benzo[d][1,3]-oxazin-2-one] yielded a melting point of 164 to 165 °C.

In turn, `CC1(C)OC(=O)Nc2ccc(-c3cccc(CC#N)c3)cc21` [Example 118, 3-(4,4Dimethyl-2-oxo-1,4-dihydro-2H-benzo[d][1,3]-oxazin-6-yl)phenylacetonitrile] had a melting point of 188 to 190 °C. `CC1(C)OC(=O)Nc2ccc(-c3ccc(C#N)o3)cc21` [Example 119, 5-(4,4Dimethyl-2-oxo-1,4-dihydro-2H-benzo[d][1,3]oxazin-6-yl)-furan-2-carbonitrile] displayed a melting point of 257 to 260 °C. Consider `CC1(C)OC(=O)Nc2ccc(-c3cccc([N+](=O)[O-])c3)cc21` [Example 13, 4,4Dimethyl6-(3-nitrophenyl)-1,4dihydrobenzo[d][1,3]oxazin-2-one], for which the melting point was in the range of 244 to 245 °C. Molecule `O=C1Nc2ccc(-c3cccc(Cl)c3)cc2C2(CCCC2)O1` [Example 31, 6-(3-Chlorophenyl)-spiro-[4H-3,1-benzoxazine-4,1′-cyclopentane]-2(1H)-one] had a melting point of 140 to 145 °C. `CC1(Cc2ccccc2)OC(=O)Nc2ccc(-c3cccc(Cl)c3)cc21` (centres unmarked) [Example 40, 4-Benzyl-6-(3-chloro-phenyl)-4-methyl-1,4-dihydro-benzo[d][1,3]oxazin-2-one] yielded a melting point of 187 to 188 °C. Molecule `CC1(C)OC(=O)Nc2ccc(-c3cc(F)cc(CC#N)c3)cc21` [Example 133, 3-(4,4Dimethyl-2-oxo-1,4-dihydro-2H-benzo[d][1,3]-oxazin-6-yl)-5-fluoro-phenylacetonitrile] gave a melting point of 218 to 220 °C. With `CC1(C)OC(=O)Nc2ccc(-c3cc(Cl)cc(C#N)c3)cc21` [Example 78, 3-Chloro-5(4,4-dimethyl-2-oxo-1,4-dihydro-2H-benzo[d][1,3]oxazin-6-yl)-benzonitrile], the melting point fell in the range of 256 to 257 °C. Molecule `CC1(c2ccccc2)OC(=O)Nc2ccc(-c3cccc(Cl)c3)cc21` (centres unmarked) [Example 39, 6-(3-Chlorophenyl)-4-methyl-4-phenyl-1,4dihydro-benzo[d][1,3]oxazin-2-one] came in with a melting point of 179 to 180 °C. Regarding `CC1(C)OC(=O)Nc2ccc(-c3ccc(N)nc3)cc21` [Example 142, 6-(6-Amino-pyridin-3-yl)-4,4-dimethyl-1,4-dihydro-benzo[d][1,3]oxazine-2-one], the melting point lay in the range of 257 to 259 °C.

For `CC(=O)Nc1ccc(-c2ccc3c(c2)C(C)(C)OC(=O)N3)cc1F` [Example 137, N-[4-(4,4-Dimethyl-2-oxo-1,4-dihydro-2H-3,1-benzoxazin-6-yl)-2fluoro-phenyl]-acetamide], the melting point lay in the range of 245 to 247 °C. With `COc1cc(C#N)cc(-c2ccc3c(c2)C(C)(C)OC(=O)N3)c1` [Example 63, 3-(4,4-Dimethyl-2-oxo-1,4-dihydro-2H-benzo[d][1,3]oxazin-6-yl)-5-methoxy-benzonitrile], the melting point was in the range of 254 to 255 °C. `CN1C(=O)OC(C)(C)c2cc(-c3cccc(Br)c3)ccc21` [Example 126, 6-(3-Bromophenyl)-1,4,4-trimethyl-1,4-dihydro-2H-3,1-benzoxazin-2-one] showed a melting point of 142 to 143 °C. The same measure, in the same setting: the value for `CN1C(=O)OC(C)(C)c2cc(-c3cc(F)cc(Br)c3)ccc21` [Example 45, 6-(3-Bromo-5fluorophenyl)-1,4,4-trimethyl-1,4-dihydrobenzo[d][1,3]oxazin-2-one] was 157 to 158 °C; that for `O=C1Nc2ccc(-c3cccc([N+](=O)[O-])c3)cc2C2(CCCCC2)O1` [Example 32, 6-(3—Nitrophenyl)-spiro[4H-3,1-benzoxazine-4,1′-cyclohexan]-2(1H)-one] was 245 to 246 °C; that for `CCCCc1cc(C#N)sc1-c1ccc2c(c1)C(C)(C)OC(=O)N2` [Example 113, 5-(4,4-Dimethyl-2-oxo-1,4-dihydro-2H-benzo[d][1,3]oxazin-6-yl)4-n-butyl-thiophene-2-carbonitrile] was 167 to 168 °C. `CC1(C)OC(=O)Nc2c(Br)cc(-c3ccc(F)c(Cl)c3)cc21` [Example 123, 8-Bromo-6-(3-chloro-4-fluorophenyl)-4,4-dimethyl-1,4-dihydro-2H-3,1-benzoxazin-2-one] gave a melting point of 194 to 195 °C.
